Data reported in patent US7906486B2, “Method of treating or preventing tissue deterioration, injury or damage due to disease of mucosa” (SciClone Pharmaceuticals, Inc., priority 2007, dated 2011).

Key:
[1] = Weights and survival (Example 1, SCI-01); type: in vivo, Syrian Golden Hamsters
Method: All animals were weighed daily and their survival recorded, in order to assess possible differences in animal weight among treatment groups as an indication for mucositis severity and/or possible toxicity resulting from the treatments.
The mean daily percent weight change data was evaluated. The saline (PBS) treated control hamsters gained an average of 70.4% of their starting weight during the study. Hamsters in the group receiving SCV-07 at 1 ug/kg on days −1 to 16 gained an average of 68.4% of their starting weight during the study. Hamsters in the group receiving SCV-07 at 10 ug/kg on days −1 to 16 gained an average of 70.3% of their starting weight during the study. Hamsters in the group receiving SCV-07 at 100 ug/kg on days −1 to 16 gained an average of 82.0% of their starting weight during the study. The significance of these differences was evaluated by calculating the area-under-the-curve (AUC) for the weight gain of each animal, and then comparing the different treatment groups using a One-Way ANOVA test.

spleen lymphocytes = details: cited from earlier work
[2] = system: oral mucositis induced by cis-platin 5 mg/kg and radiation 35 Gy (left cheek pouch); assay: Oral mucositis induced by a combination of cisplatin and acute radiation in hamsters, mucositis scoring (Example 4, SCI-04); type: in vivo, Syrian Golden Hamsters; design: key: 0: Pouch completely healthy. No erythema or vasodilation.; 1: Light to severe erythema and vasodilation. No erosion of mucosa.; 2: Severe erythema and vasodilation. Erosion of superficial aspects of mucosa leaving denuded areas, but no frank ulceration. Decreased stippling of mucosa.; 3: Formation of off-white ulcers in one or more places. Ulcers may have a yellow/gray due to pseudomembrane. Cumulative size of ulcers should equal about ¼ of the pouch. Severe erythema and vasodilation.; 4: Cumulative seize of ulcers should equal about ½ of the pouch. Loss of pliability. Severe erythema and vasodilation.; 5: Virtually all of pouch is ulcerated. Loss of pliability (pouch can only partially be extracted from mouth); details: Group 2 (SCV-07 10 μg/kg, day -1 to day 20), individual animal scores, two scores per animal
Method: Forty Golden Syrian hamsters were prospectively randomized into four equally sized groups. Mucositis was induced on the left cheek pouch mucosa of golden Syrian hamsters by a single dose of cis-platin at 5 mg/kg given on day −1, and a single dose of radiation administered on day 0 at a dose of 35Gy. Beginning on day −1 and continuing once daily until day 20, SCV-07 was given by sub-cutaneous injection at doses of 10 μg/kg, 100 μg/kg or 1 mg/kg in a volume of 100 μL. Animals' activity and weight were evaluated daily. Beginning on day 6 and continuing on alternate days for the duration of the study, oral mucositis was evaluated using a standard scoring six point scale. The number of days of ulcerative mucositis was evaluated using a Chi-squared test of scores of ≧3 throughout the study, and the individual daily group scores were assessed with a Rank Sum Test.
The chemo-radiation model of oral mucositis in hamsters, developed by the Principal Investigator, has proven to be an accurate, efficient and cost-effective technique to provide a preliminary evaluation of anti-mucositis compounds. In this model, hamsters received a single dose of cis-platin at 5 mg/kg on day −1, followed by a single dose of radiation of 35 Gy to the left cheek pouch on day 0, rather than the single dose of 40 Gy on day 0 that is used in acute radiation studies. The course of mucositis in this model is very similar to the acute radiation model and results in peak mucositis scores approximately 16-18 days following radiation.
Hamsters received a single dose of cis-platin at 5 mg/kg on day −1 by intra-peritoneal injection, followed by a single dose of radiation of 35 Gy to the left cheek pouch on day 0. This was accomplished by anesthetizing the animals and everting the left buccal pouch, while protecting the rest of the animal's bodies with a lead shield. Test materials were given by sub-cutaneous injection once daily as detailed in Table 13. Mucositis was evaluated clinically starting on day 6, and continuing on alternate days until day 28. Test articles were given as from day −1 to day 20.
The grade of mucositis was scored, beginning day 6, and for every second day thereafter, through and including day 28. The effect on mucositis of each drug treatment compared to placebo was assessed according to the following parameters:
On each evaluation day, the number of animals with a blinded mucositis score of ≧3 in each drug treatment group was compared to the control group. Differences were compared on a cumulative basis and statistical significance was determined by chi-square analysis. Efficacy, in this analysis, is defined by a significant reduction in the number of days that a group of animals had ulcerations (scores 3) when compared to the control group.
For each evaluation day the scores of the control group were compared to those of the treated groups using non-parametric rank sum analysis. Treatment success was considered as a statistically significant lowering of scores in the treated group on 2 or more days from day 6 to day 28.
Forty (40) male Syrian Golden Hamsters were given an intraperitoneal injection of 5 mg/kg Cisplatin on day −1. On day 0 all animals were given an acute radiation dose of 35 Gy directed to their left buccal cheek pouch. This was accomplished by anesthetizing the animals and everting the left buccal pouch, while protecting the rest of the animals with a lead shield. Test materials were given by subcutaneous injection once daily as detailed in Table 13. Mucositis was evaluated clinically starting on Day 6, and continued on alternate days until day 28.
In this study, mucositis was induced with a combination of Cis-platin and radiation. Cis-platin was given as a single injection (IP) of 5 mg/kg on day −1. Radiation was given as a single focal dose of 35 Gy on day 0. Radiation was generated with a Philips 160 kVp (kilovolt potential) (18.75-ma) X-ray source at a focal distance of 30 cm, with a 3.0 mm hardened Al filtration system. […]

Compound: N[C@H](CCC(=O)N[C@@H](Cc1c[nH]c2ccccc12)C(=O)O)C(=O)O [SCV-07, γ-D-glutamyl-L-tryptophan]
- average weight gain, % of starting weight during the study ([1]; 1 ug/kg on days -1 to 16): 68.4%
- average weight gain, % of starting weight during the study ([1]; 10 ug/kg on days -1 to 16): 70.3%
- average weight gain, % of starting weight during the study ([1]; 100 ug/kg on days -1 to 16): 82.0%
- IL-2 receptor expression by spleen lymphocytes (spleen lymphocytes; Con-A-induced): increases
- Con-A-induced interleukin-2 (IL-2) production (spleen lymphocytes; spleen lymphocytes): increases
- Mucositis score, day 10 ([2]; day 10): 2
- Mucositis score, day 12 ([2]; day 12): 2
- Mucositis score, day 14 ([2]; day 14): 2
- Mucositis score, day 16 ([2]; day 16): 2
- Mucositis score, day 18 ([2]; day 18): 2
- Mucositis score, day 20 ([2]; day 20): 2
- Mucositis score, day 22 ([2]; day 22): 2
- Mucositis score, day 24 ([2]; day 24): 2
- Mucositis score, day 26 ([2]; day 26): 2
- Mucositis score, day 28 ([2]; day 28): 2
